From ChEMBL document CHEMBL1201862, “PubChem BioAssay data set” (2004)
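96-well plates; 48 h exposure; 5 concentrations. Endpoints by linear interpolation between flanking doses. Not reached: highest tested concentration assigned. At the GI50, growth is halved.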 The source made the active and inactive calls. Rule as the data show it: active = GI50 up to about 1.1 µM and inactive = higher.

Assays:
Experiment in all cases: DTP human tumour cell line panel, 48 h
[1] = test system: T47D
[2] = test system: PC-3
[3] = test system: MOLT-4
[4] = test system: ACHN
[5] = test system: OVCAR-8
[6] = test system: SF-539
[7] = test system: MCF7
[8] = test system: OVCAR-3
[9] = test system: KM12
[10] = test system: BT-549
[11] = test system: TK-10
[12] = test system: COLO 205
[13] = test system: RPMI-8226
[14] = test system: SF-295
[15] = test system: K562
[16] = test system: M14
[17] = test system: SF-268
[18] = test system: CAKI-1
[19] = test system: LOX IMVI
[20] = test system: SK-OV-3

SMILES: CSc1nc2ccccc2c(=O)n1-c1cccc(C)c1
- GI50 [1]: 29.2 µM (inactive)
- GI50 [2]: 46.6 µM (inactive)
- GI50 [3]: 28.8 µM (inactive)
- GI50 [4]: 97.9 µM (inactive)
- GI50 [5]: > 100 µM (inactive)
- GI50 [6]: 78.9 µM (inactive)
- GI50 [7]: 32.5 µM (inactive)
- GI50 [8]: > 100 µM (inactive)
- GI50 [9]: 45.3 µM (inactive)
- GI50 [10]: > 100 µM (inactive)
- GI50 [11]: > 100 µM (inactive)
- GI50 [12]: 48.9 µM (inactive)
- GI50 [13]: 39.4 µM (inactive)
- GI50 [14]: 95.5 µM (inactive)
- GI50 [15]: 33 µM (inactive)
- GI50 [16]: 95.5 µM (inactive)
- GI50 [17]: 99.1 µM (inactive)
- GI50 [18]: 95.1 µM (inactive)
- GI50 [19]: 53.1 µM (inactive)
- GI50 [20]: > 100 µM (inactive)

SMILES: COc1ccc2nc(-c3ccccc3)c(=O)[nH]c2c1
- GI50 [1]: > 100 µM (inactive)
- GI50 [2]: > 100 µM (inactive)
- GI50 [3]: > 100 µM (inactive)
- GI50 [4]: > 100 µM (inactive)
- GI50 [5]: > 100 µM (inactive)
- GI50 [6]: > 100 µM (inactive)
- GI50 [7]: > 100 µM (inactive)
- GI50 [8]: > 100 µM (inactive)
- GI50 [10]: > 100 µM (inactive)
- GI50 [11]: > 100 µM (inactive)
- GI50 [12]: > 100 µM (inactive)
- GI50 [13]: > 100 µM (inactive)
- GI50 [14]: > 100 µM (inactive)
- GI50 [15]: > 100 µM (inactive)
- GI50 [16]: > 100 µM (inactive)
- GI50 [17]: > 100 µM (inactive)
- GI50 [18]: > 100 µM (inactive)
- GI50 [19]: > 100 µM (inactive)

SMILES: C=C(c1ccc2[nH]c(NC(=O)OC)nc2c1)c1cccs1
- GI50 [1]: 0.354 µM (active)
- GI50 [2]: 0.0914 µM (active)
- GI50 [4]: 0.06 µM (active)
- GI50 [5]: 0.299 µM (active)
- GI50 [6]: 0.0693 µM (active)
- GI50 [7]: 0.0925 µM (active)
- GI50 [8]: 0.0379 µM (active)
- GI50 [10]: 0.679 µM (active)
- GI50 [11]: 0.22 µM (active)
- GI50 [12]: 0.129 µM (active)
- GI50 [13]: 0.316 µM (active)
- GI50 [14]: 0.051 µM (active)
- GI50 [15]: < 0.0456 µM (active)
- GI50 [16]: 0.247 µM (active)
- GI50 [17]: 2.02 µM (inactive)
- GI50 [18]: < 0.046 µM (active)
- GI50 [19]: 0.0986 µM (active)
- GI50 [20]: 0.135 µM (active)

SMILES: Cc1ccnc(NS(=O)(=O)c2ccc(N=[N+]=[N-])cc2)n1
- GI50 [1]: > 100 µM (inactive)
- GI50 [2]: > 100 µM (inactive)
- GI50 [4]: > 100 µM (inactive)
- GI50 [5]: > 100 µM (inactive)
- GI50 [6]: > 100 µM (inactive)
- GI50 [7]: > 100 µM (inactive)
- GI50 [8]: > 100 µM (inactive)
- GI50 [9]: > 100 µM (inactive)
- GI50 [10]: > 100 µM (inactive)
- GI50 [11]: > 100 µM (inactive)
- GI50 [12]: > 100 µM (inactive)
- GI50 [13]: > 100 µM (inactive)
- GI50 [14]: > 100 µM (inactive)
- GI50 [16]: > 100 µM (inactive)
- GI50 [17]: > 100 µM (inactive)
- GI50 [18]: > 100 µM (inactive)
- GI50 [19]: > 100 µM (inactive)
- GI50 [20]: > 100 µM (inactive)

SMILES: N#Cc1c(-c2ccc([N+](=O)[O-])cc2)cc(-c2ccc(Nc3ccnc4cc(C(F)(F)F)ccc34)cc2)[nH]c1=O
- GI50 [1]: > 100 µM (inactive)
- GI50 [2]: > 100 µM (inactive)
- GI50 [3]: > 100 µM (inactive)
- GI50 [4]: > 100 µM (inactive)
- GI50 [5]: > 100 µM (inactive)
- GI50 [6]: > 100 µM (inactive)
- GI50 [7]: > 100 µM (inactive)
- GI50 [10]: > 100 µM (inactive)
- GI50 [11]: 52.2 µM (inactive)
- GI50 [12]: 12.2 µM (inactive)
- GI50 [13]: > 100 µM (inactive)
- GI50 [14]: > 100 µM (inactive)
- GI50 [15]: > 100 µM (inactive)
- GI50 [16]: 80.9 µM (inactive)
- GI50 [17]: > 100 µM (inactive)
- GI50 [18]: > 100 µM (inactive)
- GI50 [19]: > 100 µM (inactive)
- GI50 [20]: > 100 µM (inactive)

SMILES: CC(C)(/N=N/C(C)(C)C1=NCCN1)C1=NCCN1
- GI50 [1]: 76.6 µM (inactive)
- GI50 [2]: > 100 µM (inactive)
- GI50 [3]: > 100 µM (inactive)
- GI50 [4]: > 100 µM (inactive)
- GI50 [5]: > 100 µM (inactive)
- GI50 [6]: > 67.1 µM (inactive)
- GI50 [7]: > 69.5 µM (inactive)
- GI50 [8]: > 100 µM (inactive)
- GI50 [9]: > 100 µM (inactive)
- GI50 [10]: > 100 µM (inactive)
- GI50 [11]: > 56 µM (inactive)
- GI50 [12]: > 100 µM (inactive)
- GI50 [14]: > 100 µM (inactive)
- GI50 [15]: > 56.5 µM (inactive)
- GI50 [16]: > 85.9 µM (inactive)
- GI50 [17]: > 100 µM (inactive)
- GI50 [18]: > 83.9 µM (inactive)
- GI50 [19]: > 66.1 µM (inactive)

SMILES: CC(C)(Oc1ccc(Cl)cc1)C(=O)N(C(=O)N1CCCCC1)c1ccccc1
- GI50 [1]: 0.891 µM (active)
- GI50 [2]: 3.4 µM (inactive)
- GI50 [3]: 3.41 µM (inactive)
- GI50 [4]: 14.9 µM (inactive)
- GI50 [5]: 14.1 µM (inactive)
- GI50 [6]: 8.34 µM (inactive)
- GI50 [7]: 19.6 µM (inactive)
- GI50 [8]: 23.9 µM (inactive)
- GI50 [9]: 5.87 µM (inactive)
- GI50 [10]: 15.4 µM (inactive)
- GI50 [12]: 17.4 µM (inactive)
- GI50 [13]: 7.55 µM (inactive)
- GI50 [15]: 8.17 µM (inactive)
- GI50 [16]: 17.5 µM (inactive)
- GI50 [17]: 20.1 µM (inactive)
- GI50 [18]: 14.4 µM (inactive)
- GI50 [19]: 11.4 µM (inactive)
- GI50 [20]: 19.8 µM (inactive)

SMILES: C/C=C/[C@H](O[Si](C)(C)C(C)(C)C)[C@@H](O)/C=C/C(=O)OCC
- GI50 [1]: 30.4 µM (inactive)
- GI50 [2]: 33.3 µM (inactive)
- GI50 [3]: 18.6 µM (inactive)
- GI50 [4]: 16.6 µM (inactive)
- GI50 [5]: 18.6 µM (inactive)
- GI50 [6]: 23.9 µM (inactive)
- GI50 [7]: 21.1 µM (inactive)
- GI50 [8]: 19.6 µM (inactive)
- GI50 [9]: 18 µM (inactive)
- GI50 [10]: 31.8 µM (inactive)
- GI50 [11]: 27.9 µM (inactive)
- GI50 [12]: 20.1 µM (inactive)
- GI50 [13]: 2.04 µM (inactive)
- GI50 [14]: 20.9 µM (inactive)
- GI50 [15]: 21.7 µM (inactive)
- GI50 [17]: 24 µM (inactive)
- GI50 [18]: 18.2 µM (inactive)
- GI50 [19]: 17.5 µM (inactive)
- GI50 [20]: > 10 µM (inactive)
